Results as given in patent publication US20120122860A1, “SOLID FORMS OF SULFONAMIDES AND AMINO ACIDS” (Plexxikon, Inc., priority 2009, published 2012).

Legend:
[1] = biological target: Btk (Homo sapiens, UniProt Q06187); assay: Kinase activity assay, Btk
[2] = biological target: T1, TEC (Homo sapiens, UniProt P42680); assay: Kinase activity assay, TEC
T1 sequence (P42680 1-631): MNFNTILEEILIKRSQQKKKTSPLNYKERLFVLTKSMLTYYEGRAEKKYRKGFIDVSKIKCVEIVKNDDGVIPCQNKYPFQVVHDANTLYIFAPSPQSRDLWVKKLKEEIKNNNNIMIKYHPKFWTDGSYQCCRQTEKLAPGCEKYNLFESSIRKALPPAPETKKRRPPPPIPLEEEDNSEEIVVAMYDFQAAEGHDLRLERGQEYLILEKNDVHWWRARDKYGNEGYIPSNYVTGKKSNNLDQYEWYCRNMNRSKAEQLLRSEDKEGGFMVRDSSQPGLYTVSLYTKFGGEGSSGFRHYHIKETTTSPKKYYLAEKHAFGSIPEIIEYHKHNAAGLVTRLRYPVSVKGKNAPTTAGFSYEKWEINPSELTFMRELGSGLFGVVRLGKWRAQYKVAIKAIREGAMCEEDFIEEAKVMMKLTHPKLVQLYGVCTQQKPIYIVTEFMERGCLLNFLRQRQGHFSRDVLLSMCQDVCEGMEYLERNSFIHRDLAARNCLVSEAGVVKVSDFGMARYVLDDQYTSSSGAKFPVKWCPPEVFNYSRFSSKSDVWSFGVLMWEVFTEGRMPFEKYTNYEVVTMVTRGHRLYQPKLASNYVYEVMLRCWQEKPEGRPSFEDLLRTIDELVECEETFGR

[3] = biological target: Kdr (Homo sapiens, UniProt P35968); assay: Kinase activity assay, Kdr
[4] = biological target: Src (Homo sapiens, UniProt P12931); assay: Kinase activity assay, Src
Src, sequence (P12931 whole entry): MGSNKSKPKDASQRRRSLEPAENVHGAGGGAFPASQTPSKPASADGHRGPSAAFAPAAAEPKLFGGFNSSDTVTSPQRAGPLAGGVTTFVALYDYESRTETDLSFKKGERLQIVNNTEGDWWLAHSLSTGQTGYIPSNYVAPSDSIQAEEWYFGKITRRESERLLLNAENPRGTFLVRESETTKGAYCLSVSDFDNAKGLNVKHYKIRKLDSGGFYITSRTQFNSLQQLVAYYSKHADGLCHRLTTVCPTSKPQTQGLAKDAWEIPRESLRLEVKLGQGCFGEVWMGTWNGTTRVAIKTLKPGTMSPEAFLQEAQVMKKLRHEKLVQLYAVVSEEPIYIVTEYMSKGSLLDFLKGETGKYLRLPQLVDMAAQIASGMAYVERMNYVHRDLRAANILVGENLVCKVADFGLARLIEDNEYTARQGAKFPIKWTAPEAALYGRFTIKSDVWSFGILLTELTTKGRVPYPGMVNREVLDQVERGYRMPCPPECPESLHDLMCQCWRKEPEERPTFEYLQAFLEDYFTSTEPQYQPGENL

[5] = biological target: PI3Kα (Homo sapiens, UniProt P42336); assay: Kinase activity assay, PI3Kα
[6] = biological target: B-Raf V600E (Homo sapiens, UniProt P15056, V600E); assay: Kinase activity assay, B-Raf V600E; assay type: biochemical; details: read-out: activity toward kinase B-Raf V600E, IC50
B-Raf V600E, sequence (P15056 whole entry V600E): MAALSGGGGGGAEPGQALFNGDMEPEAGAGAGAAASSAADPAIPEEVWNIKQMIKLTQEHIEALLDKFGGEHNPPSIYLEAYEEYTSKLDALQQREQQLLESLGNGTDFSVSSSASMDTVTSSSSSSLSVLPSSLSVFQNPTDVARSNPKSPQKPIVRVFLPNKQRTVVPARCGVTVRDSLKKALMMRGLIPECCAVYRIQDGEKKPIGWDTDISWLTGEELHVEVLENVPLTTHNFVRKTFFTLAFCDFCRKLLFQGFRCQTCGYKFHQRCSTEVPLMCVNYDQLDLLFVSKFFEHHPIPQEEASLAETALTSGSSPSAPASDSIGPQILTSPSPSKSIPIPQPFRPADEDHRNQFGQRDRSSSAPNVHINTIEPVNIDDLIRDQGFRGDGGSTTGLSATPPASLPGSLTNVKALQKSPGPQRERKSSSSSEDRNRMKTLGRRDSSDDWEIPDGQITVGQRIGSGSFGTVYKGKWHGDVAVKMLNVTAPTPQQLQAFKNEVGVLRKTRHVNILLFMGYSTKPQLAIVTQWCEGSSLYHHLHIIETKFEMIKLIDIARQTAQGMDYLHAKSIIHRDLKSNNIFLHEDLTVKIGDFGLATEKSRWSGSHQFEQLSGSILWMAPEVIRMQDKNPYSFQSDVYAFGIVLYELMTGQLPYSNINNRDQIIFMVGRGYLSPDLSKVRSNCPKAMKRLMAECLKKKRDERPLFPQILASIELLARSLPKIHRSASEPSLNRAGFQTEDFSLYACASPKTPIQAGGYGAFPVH

[7] = biological target: C-Raf (Homo sapiens, UniProt P04049); assay: Kinase activity assay, C-Raf
[8] = biological target: B-Raf (Homo sapiens, UniProt P15056); assay: Kinase activity assay, B-Raf; assay type: biochemical; details: read-out: activity toward kinase B-Raf, IC50
B-Raf, sequence (P15056 whole entry): as the sequence (P15056 whole entry V600E) above, with E600V counted along it

[9] = biological target: Fms (Homo sapiens, UniProt P07333); assay: Kinase activity assay, Fms
Fms, sequence (P07333 20-972): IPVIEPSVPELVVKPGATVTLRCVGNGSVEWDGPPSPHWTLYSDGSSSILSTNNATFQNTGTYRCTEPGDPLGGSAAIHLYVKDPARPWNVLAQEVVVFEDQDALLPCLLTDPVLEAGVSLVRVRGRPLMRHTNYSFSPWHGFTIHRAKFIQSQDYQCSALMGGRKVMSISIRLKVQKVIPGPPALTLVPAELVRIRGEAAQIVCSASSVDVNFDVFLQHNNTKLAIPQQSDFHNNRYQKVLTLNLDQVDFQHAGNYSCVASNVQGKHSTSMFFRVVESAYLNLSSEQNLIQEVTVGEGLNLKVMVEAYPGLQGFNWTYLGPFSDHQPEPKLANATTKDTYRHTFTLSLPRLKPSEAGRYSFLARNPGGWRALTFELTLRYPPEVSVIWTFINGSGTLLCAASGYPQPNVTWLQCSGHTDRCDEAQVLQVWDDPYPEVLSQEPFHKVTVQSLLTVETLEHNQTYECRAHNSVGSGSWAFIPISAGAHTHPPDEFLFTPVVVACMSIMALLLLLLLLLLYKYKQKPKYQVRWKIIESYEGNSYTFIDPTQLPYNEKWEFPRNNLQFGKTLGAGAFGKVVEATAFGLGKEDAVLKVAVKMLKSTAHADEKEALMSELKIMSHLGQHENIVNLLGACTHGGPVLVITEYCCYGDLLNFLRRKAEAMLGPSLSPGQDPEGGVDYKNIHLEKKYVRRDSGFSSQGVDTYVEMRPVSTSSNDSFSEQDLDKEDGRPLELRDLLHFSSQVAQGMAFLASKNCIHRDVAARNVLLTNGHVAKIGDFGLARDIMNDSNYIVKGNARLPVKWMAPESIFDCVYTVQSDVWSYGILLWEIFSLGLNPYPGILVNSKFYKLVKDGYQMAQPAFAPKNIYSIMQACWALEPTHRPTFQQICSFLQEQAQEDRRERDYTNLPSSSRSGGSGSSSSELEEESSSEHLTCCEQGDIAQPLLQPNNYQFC

[10] = biological target: Kit (Homo sapiens, UniProt P10721); assay: Kinase activity assay, Kit
Kit, sequence (P10721 26-976): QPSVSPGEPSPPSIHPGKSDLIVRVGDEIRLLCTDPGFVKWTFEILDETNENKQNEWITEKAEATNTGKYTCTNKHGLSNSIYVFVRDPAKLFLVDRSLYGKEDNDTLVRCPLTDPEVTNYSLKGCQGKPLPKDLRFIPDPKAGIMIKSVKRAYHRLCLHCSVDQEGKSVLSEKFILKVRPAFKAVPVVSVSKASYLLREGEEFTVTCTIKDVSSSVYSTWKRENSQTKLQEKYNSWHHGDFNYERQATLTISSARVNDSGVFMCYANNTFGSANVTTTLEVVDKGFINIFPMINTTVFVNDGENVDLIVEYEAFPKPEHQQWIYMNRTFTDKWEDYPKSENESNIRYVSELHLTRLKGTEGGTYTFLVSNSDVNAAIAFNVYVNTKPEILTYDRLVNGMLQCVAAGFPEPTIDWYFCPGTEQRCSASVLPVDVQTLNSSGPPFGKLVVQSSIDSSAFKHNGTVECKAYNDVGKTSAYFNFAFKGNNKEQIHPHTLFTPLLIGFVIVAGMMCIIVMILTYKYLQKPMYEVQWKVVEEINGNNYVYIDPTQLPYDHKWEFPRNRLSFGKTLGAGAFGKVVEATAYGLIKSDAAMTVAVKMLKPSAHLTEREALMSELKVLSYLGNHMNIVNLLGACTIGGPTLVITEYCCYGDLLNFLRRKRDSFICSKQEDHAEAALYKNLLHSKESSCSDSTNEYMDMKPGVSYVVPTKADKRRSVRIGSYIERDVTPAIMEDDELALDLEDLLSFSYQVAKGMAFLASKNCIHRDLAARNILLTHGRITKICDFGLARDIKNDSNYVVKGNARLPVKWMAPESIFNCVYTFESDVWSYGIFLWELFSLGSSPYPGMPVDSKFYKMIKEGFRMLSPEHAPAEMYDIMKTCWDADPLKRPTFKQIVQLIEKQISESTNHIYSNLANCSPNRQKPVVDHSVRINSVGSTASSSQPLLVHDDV

[11] = biological target: MAP4K4 (Homo sapiens, UniProt O95819); assay: Kinase activity assay, MAP4K4
MAP4K4, sequence (O95819 whole entry): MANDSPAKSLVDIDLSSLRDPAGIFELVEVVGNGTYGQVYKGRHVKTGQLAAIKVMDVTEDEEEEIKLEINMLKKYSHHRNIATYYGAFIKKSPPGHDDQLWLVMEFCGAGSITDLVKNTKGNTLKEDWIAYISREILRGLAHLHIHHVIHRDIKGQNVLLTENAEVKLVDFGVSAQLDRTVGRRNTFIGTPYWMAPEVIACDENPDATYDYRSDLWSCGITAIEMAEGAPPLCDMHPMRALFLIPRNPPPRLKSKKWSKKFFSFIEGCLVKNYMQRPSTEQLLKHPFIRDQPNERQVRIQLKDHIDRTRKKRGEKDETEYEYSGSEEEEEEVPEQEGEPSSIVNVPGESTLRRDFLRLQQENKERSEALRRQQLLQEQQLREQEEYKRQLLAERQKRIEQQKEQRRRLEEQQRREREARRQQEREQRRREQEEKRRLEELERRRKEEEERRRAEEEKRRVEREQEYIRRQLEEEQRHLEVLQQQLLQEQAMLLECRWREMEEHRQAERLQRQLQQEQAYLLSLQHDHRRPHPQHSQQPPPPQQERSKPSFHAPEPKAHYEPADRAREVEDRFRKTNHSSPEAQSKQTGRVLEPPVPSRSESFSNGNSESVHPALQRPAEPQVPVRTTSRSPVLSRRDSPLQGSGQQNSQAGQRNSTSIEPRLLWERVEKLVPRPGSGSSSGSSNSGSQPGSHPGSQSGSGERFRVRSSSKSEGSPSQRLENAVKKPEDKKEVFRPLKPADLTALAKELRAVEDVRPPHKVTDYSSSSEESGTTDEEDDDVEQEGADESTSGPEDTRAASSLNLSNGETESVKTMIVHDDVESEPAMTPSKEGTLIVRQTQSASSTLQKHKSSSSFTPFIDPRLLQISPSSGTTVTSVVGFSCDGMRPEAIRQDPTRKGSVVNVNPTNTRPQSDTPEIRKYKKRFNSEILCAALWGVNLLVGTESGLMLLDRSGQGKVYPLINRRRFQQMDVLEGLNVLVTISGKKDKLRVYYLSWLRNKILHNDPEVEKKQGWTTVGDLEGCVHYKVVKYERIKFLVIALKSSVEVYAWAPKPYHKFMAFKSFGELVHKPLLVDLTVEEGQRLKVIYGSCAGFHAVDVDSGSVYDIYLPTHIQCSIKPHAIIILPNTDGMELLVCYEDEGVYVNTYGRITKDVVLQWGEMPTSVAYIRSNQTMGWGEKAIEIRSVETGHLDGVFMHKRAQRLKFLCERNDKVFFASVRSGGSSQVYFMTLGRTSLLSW

[12] = biological target: T2, A-Raf (Homo sapiens, UniProt P10398); assay: Kinase activity assay, A-Raf
T2 sequence (P10398 1-606): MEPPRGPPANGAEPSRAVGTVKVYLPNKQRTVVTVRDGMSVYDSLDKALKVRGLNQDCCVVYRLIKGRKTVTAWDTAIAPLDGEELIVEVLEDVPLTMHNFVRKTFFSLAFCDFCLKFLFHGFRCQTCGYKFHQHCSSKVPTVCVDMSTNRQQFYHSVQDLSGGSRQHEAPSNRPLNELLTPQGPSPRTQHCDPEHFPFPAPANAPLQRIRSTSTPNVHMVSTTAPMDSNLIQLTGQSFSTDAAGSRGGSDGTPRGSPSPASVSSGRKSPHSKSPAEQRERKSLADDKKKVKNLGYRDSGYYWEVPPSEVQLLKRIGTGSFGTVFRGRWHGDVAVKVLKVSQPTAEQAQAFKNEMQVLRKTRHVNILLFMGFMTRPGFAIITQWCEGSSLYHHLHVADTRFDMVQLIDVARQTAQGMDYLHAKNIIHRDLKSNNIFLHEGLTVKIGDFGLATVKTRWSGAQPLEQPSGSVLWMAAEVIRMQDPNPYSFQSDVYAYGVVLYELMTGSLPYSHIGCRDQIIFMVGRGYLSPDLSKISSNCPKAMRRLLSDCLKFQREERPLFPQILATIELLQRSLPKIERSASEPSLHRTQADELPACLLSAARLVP

Measured: IC50

COc1ncc(-c2cnc3[nH]cc(C(=O)c4c(F)ccc(NS(=O)(=O)c5ncn[nH]5)c4F)c3c2)cn1 [P-2080]
not listed: [9] | [10] | [11] | [12]
≤ 10 µM: all other assays above

CS(=O)(=O)c1cccc(-c2cnc3[nH]cc(C(=O)c4cccc(NS(=O)(=O)c5cccnc5)c4)c3c2)c1 [P-2149, Pyridine-3-sulfonic acid {3-[5-(3-methanesulfonyl-phenyl)-1H-pyrrolo[2,3-b]pyridine-3-carbonyl]-phenyl}-amide]
≤ 10 µM: [9] | [3] | [4] | [5] | [10] | [11] | [8]

COc1ncc(-c2cnc3[nH]cc(C(=O)c4c(F)ccc(NS(=O)(=O)c5cccc(F)c5)c4F)c3c2)cn1 [P-2045, N-{2,4-Difluoro-3-[5-(2-methoxy-pyrimidin-5-yl)-1H-pyrrolo[2,3-b]pyridine-3-carbonyl]-phenyl}-3-fluoro-benzenesulfonamide]
≤ 10 µM: [1] | [2] | [4] | [5] | [6] | [7] | [8]

COc1ncc(-c2cnc3[nH]cc(C(=O)c4c(F)ccc(NS(=O)(=O)N5CCOCC5)c4F)c3c2)cn1 [P-2402, Morpholine-4-sulfonic acid {2,4-difluoro-3-[5-(2-methoxy-pyrimidin-5-yl)-1H-pyrrolo[2,3-b]pyridine-3-carbonyl]-phenyl}-amide]
≤ 10 µM: [1] | [2] | [4] | [5] | [6] | [7] | [8]

COc1ncc(-c2cnc3[nH]cc(C(=O)c4c(F)ccc(NS(C)(=O)=O)c4F)c3c2)cn1 [P-2295, N-{2,4-Difluoro-3-[5-(2-methoxy-pyrimidin-5-yl)-1H-pyrrolo[2,3-b]pyridine-3-carbonyl]-phenyl}-methanesulfonamide]
≤ 10 µM: [1] | [3] | [5] | [6] | [7] | [8]

COc1ncc(-c2cnc3[nH]cc(C(=O)c4c(F)ccc(NS(=O)(=O)c5ccc(F)cc5)c4F)c3c2)cn1 [P-2040, N-{2,4-Difluoro-3-[5-(2-methoxy-pyrimidin-5-yl)-1H-pyrrolo[2,3-b]pyridine-3-carbonyl]-phenyl}-4-fluoro-benzenesulfonamide]
≤ 10 µM: [2] | [4] | [5] | [6] | [7] | [8]

NC(=O)c1cccc(-c2cnc3[nH]cc(C(=O)c4cccc(NS(=O)(=O)c5cccnc5)c4)c3c2)c1 [P-2147, 3-{3-[3-(Pyridine-3-sulfonylamino)-benzoyl]-1H-pyrrolo[2,3-b]pyridin-5-yl}-benzamide]
not listed: [2] | [9] | [12]
≤ 10 µM: all other assays above

COc1ccnc2[nH]cc(C(=O)c3c(F)ccc(NS(=O)(=O)c4cc(F)ccc4F)c3F)c12 [P-2022, N-[2,4-Difluoro-3-(4-methoxy-1H-pyrrolo[2,3-b]pyridine-3-carbonyl)-phenyl]-2,5-difluoro-benzenesulfonamide]
not listed: [5]
≤ 10 µM: all other assays above

COc1ncc(-c2cnc3[nH]cc(C(=O)c4c(F)ccc(NS(=O)(=O)CCC(F)(F)F)c4F)c3c2)cn1 [P-2333]
not listed: [1] | [9] | [11] | [12]
≤ 10 µM: all other assays above

COc1ncc(-c2cnc3[nH]cc(C(=O)c4c(F)ccc(NS(=O)(=O)N(C)C)c4F)c3c2)cn1 [P-2399, N,N-dimethylamino-sulfonic acid {2,4-difluoro-3-[5-(2-methoxy-pyrimidin-5-yl)-1H-pyrrolo[2,3-b]pyridine-3-carbonyl]-phenyl}-amide]
not listed: [9] | [10] | [11] | [12]
≤ 10 µM: all other assays above

C#Cc1cnc2[nH]cc(C(=O)c3c(F)ccc(NS(=O)(=O)CCC)c3F)c2c1 [P-2260, Propane-1-sulfonic acid [3-(5-ethynyl-1H-pyrrolo[2,3-b]pyridine-3-carbonyl)-2,4-difluoro-phenyl]-amide]
not listed: [5] | [11]
≤ 10 µM: all other assays above

COc1ncc(-c2cnc3[nH]cc(C(=O)c4c(F)ccc(NS(=O)(=O)c5ccccn5)c4F)c3c2)cn1 [P-2079]
not listed: [9] | [10] | [11] | [12]
≤ 10 µM: all other assays above

CCS(=O)(=O)Nc1ccc(F)c(C(=O)c2c[nH]c3ncc(-c4cnc(OC)nc4)cc23)c1F [P-2286, Ethanesulfonic acid {2,4-difluoro-3-[5-(2-methoxy-pyrimidin-5-yl)-1H-pyrrolo[2,3-b]pyridine-3-carbonyl]-phenyl}-amide]
≤ 10 µM: [1] | [3] | [4] | [5] | [6] | [7] | [8]

CCCS(=O)(=O)Nc1ccc(F)c(C(=O)c2c[nH]c3ncc(-c4ccc(O)nc4)cc23)c1F [P-2234, Propane-1-sulfonic acid {2,4-difluoro-3-[5-(6-hydroxy-pyridin-3-yl)-1H-pyrrolo[2,3-b]pyridine-3-carbonyl]-phenyl}-amide]
not listed: [1] | [2]
≤ 10 µM: all other assays above

COc1ncc(-c2cnc3[nH]cc(C(=O)c4c(F)ccc(NS(=O)(=O)C5CCC5)c4F)c3c2)cn1 [P-2373, Cyclobutanesulfonic acid {2,4-difluoro-3-[5-(2-methoxy-pyrimidin-5-yl)-1H-pyrrolo[2,3-b]pyridine-3-carbonyl]-phenyl}-amide]
≤ 10 µM: [2] | [3] | [4] | [5] | [6] | [7] | [8]

COc1ncc(-c2cnc3[nH]cc(C(=O)c4c(F)ccc(NS(=O)(=O)CC(F)(F)F)c4F)c3c2)cn1 [P-2342, 2,2,2-Trifluoro-ethanesulfonic acid {2,4-difluoro-3-[5-(2-methoxy-pyrimidin-5-yl)-1H-pyrrolo[2,3-b]pyridine-3-carbonyl]-phenyl}-amide]
≤ 10 µM: [2] | [4] | [5] | [6] | [7] | [8]
